# Assay results published in ChEMBL document CHEMBL5724914, “Linking interpersonal differences in gut microbiota composition and drug biotransformation activity” (2024).
# Where a SMILES comes first, the peptide text is derived from it. [ ]: non-standard residue; d: D form. pGlu = O=C1CC[C@@H](C(=O)O)N1; Thz = O=C(O)[C@@H]1CSCN1
# Tests used:
# [1] = (§1) The drug is tested on WLS-090 corresponding to human gut metagenome with ENA study accession number: PRJEB37062 and ENA sample accession number: ERS12561753 for biotransformation under anaerobic condition. The drug concentrations were measured over 9 timepoints collected between 0 and 24 hours of incubation by liquid-chromatography-coupled mass spectrometry (LC–MS); settings: 2 µM
# [2] = as §1, with “WLS-086” for “WLS-090”, “ERS12561752” for “ERS12561753”; settings: 2 µM
# [3] = as §1, with “WLS-077” for “WLS-090”, “ERS12561750” for “ERS12561753”; settings: 2 µM
# [4] = as §1, with “WLS-038” for “WLS-090”, “ERS12561745” for “ERS12561753”; settings: 2 µM
# [5] = human gut metagenome, 24 h, 2 µM
# [6] = human gut metagenome, 24 h, 2 µM; remark: listed apart in the source
# [7] = human gut metagenome, 24 h, 2 µM; remark: listed apart in the source
# [8] = human gut metagenome, 24 h, 2 µM; remark: listed apart in the source
# [9] = human gut metagenome, 24 h, 2 µM; remark: listed apart in the source
# Also: call rule not given here.
compound,measurement,setting,value
CCCc1nc2c(C)cc(-c3nc4ccccc4n3C)cc2n1Cc1ccc(-c2ccccc2C(=O)O)cc1,Bacterial Biotransformation,[1],Compound metabolized
same,Bacterial Biotransformation,[2],Compound metabolized
same,Bacterial Biotransformation,[3],Compound metabolized
same,Bacterial Biotransformation,[4],Compound metabolized
same,Bacterial Biotransformation,[5],Compound metabolized
same,Bacterial Biotransformation,[6],Compound metabolized
same,Bacterial Biotransformation,[7],Compound metabolized
same,Bacterial Biotransformation,[8],Compound NOT metabolized
same,Bacterial Biotransformation,[9],Compound metabolized
CCCCC(=O)N(Cc1ccc(-c2ccccc2-c2nnn[nH]2)cc1)[C@H](C(=O)O)C(C)C,Bacterial Biotransformation,[1],Compound metabolized
same,Bacterial Biotransformation,[2],Compound metabolized
same,Bacterial Biotransformation,[3],Compound metabolized
same,Bacterial Biotransformation,[4],Compound metabolized
same,Bacterial Biotransformation,[5],Compound metabolized
same,Bacterial Biotransformation,[6],Compound metabolized
same,Bacterial Biotransformation,[7],Compound metabolized
same,Bacterial Biotransformation,[8],Compound metabolized
same,Bacterial Biotransformation,[9],Compound metabolized
Cc1cc2c(cc1S(N)(=O)=O)S(=O)(=O)CCC2,Bacterial Biotransformation,[1],Compound NOT metabolized
same,Bacterial Biotransformation,[2],Compound NOT metabolized
same,Bacterial Biotransformation,[3],Compound NOT metabolized
same,Bacterial Biotransformation,[4],Compound NOT metabolized
same,Bacterial Biotransformation,[5],Compound NOT metabolized
same,Bacterial Biotransformation,[6],Compound NOT metabolized
same,Bacterial Biotransformation,[7],Compound NOT metabolized
same,Bacterial Biotransformation,[8],Compound NOT metabolized
same,Bacterial Biotransformation,[9],Compound NOT metabolized
CN1CCc2c(c3ccccc3n2Cc2ccccc2)C1.CN1CCc2c(c3ccccc3n2Cc2ccccc2)C1.O=S(=O)(O)c1cccc2c(S(=O)(=O)O)cccc12,Bacterial Biotransformation,[1],Compound metabolized
same,Bacterial Biotransformation,[2],Compound NOT metabolized
same,Bacterial Biotransformation,[3],Compound NOT metabolized
same,Bacterial Biotransformation,[4],Compound NOT metabolized
same,Bacterial Biotransformation,[5],Compound NOT metabolized
same,Bacterial Biotransformation,[6],Compound NOT metabolized
same,Bacterial Biotransformation,[7],Compound NOT metabolized
same,Bacterial Biotransformation,[8],Compound NOT metabolized
same,Bacterial Biotransformation,[9],Compound metabolized
CCC(COC(=O)c1cc(OC)c(OC)c(OC)c1)(c1ccccc1)N(C)C.O=C(O)/C=C\C(=O)O (stereo not drawn),Bacterial Biotransformation,[1],Compound NOT metabolized
same,Bacterial Biotransformation,[2],Compound NOT metabolized
same,Bacterial Biotransformation,[3],Compound NOT metabolized
same,Bacterial Biotransformation,[4],Compound NOT metabolized
same,Bacterial Biotransformation,[5],Compound metabolized
same,Bacterial Biotransformation,[6],Compound NOT metabolized
same,Bacterial Biotransformation,[7],Compound NOT metabolized
same,Bacterial Biotransformation,[8],Compound NOT metabolized
same,Bacterial Biotransformation,[9],Compound metabolized
COc1ccc(CCN(C)CCCC(C#N)(c2ccc(OC)c(OC)c2)C(C)C)cc1OC (stereo not drawn),Bacterial Biotransformation,[1],Compound metabolized
same,Bacterial Biotransformation,[2],Compound metabolized
same,Bacterial Biotransformation,[3],Compound NOT metabolized
same,Bacterial Biotransformation,[4],Compound NOT metabolized
same,Bacterial Biotransformation,[5],Compound metabolized
same,Bacterial Biotransformation,[6],Compound NOT metabolized
same,Bacterial Biotransformation,[7],Compound metabolized
same,Bacterial Biotransformation,[8],Compound NOT metabolized
same,Bacterial Biotransformation,[9],Compound metabolized
CN1CC(=O)N2[C@H](c3ccc4c(c3)OCO4)c3[nH]c4ccccc4c3C[C@@H]2C1=O,Bacterial Biotransformation,[1],Compound metabolized
same,Bacterial Biotransformation,[2],Compound metabolized
same,Bacterial Biotransformation,[3],Compound metabolized
same,Bacterial Biotransformation,[4],Compound metabolized
same,Bacterial Biotransformation,[5],Compound metabolized
same,Bacterial Biotransformation,[6],Compound NOT metabolized
same,Bacterial Biotransformation,[7],Compound metabolized
same,Bacterial Biotransformation,[8],Compound NOT metabolized
same,Bacterial Biotransformation,[9],Compound metabolized
COc1cc2nc(N(C)CCCNC(=O)C3CCCO3)nc(N)c2cc1OC (stereo not drawn) [ALFUZOSIN],Bacterial Biotransformation,[1],Compound metabolized
same,Bacterial Biotransformation,[2],Compound metabolized
same,Bacterial Biotransformation,[3],Compound NOT metabolized
same,Bacterial Biotransformation,[4],Compound NOT metabolized
same,Bacterial Biotransformation,[5],Compound metabolized
same,Bacterial Biotransformation,[6],Compound metabolized
same,Bacterial Biotransformation,[7],Compound metabolized
same,Bacterial Biotransformation,[8],Compound NOT metabolized
same,Bacterial Biotransformation,[9],Compound metabolized
NC12CC3CC(CC(C3)C1)C2 [AMANTADINE],Bacterial Biotransformation,[1],Compound NOT metabolized
same,Bacterial Biotransformation,[2],Compound NOT metabolized
same,Bacterial Biotransformation,[3],Compound NOT metabolized
same,Bacterial Biotransformation,[4],Compound NOT metabolized
same,Bacterial Biotransformation,[5],Compound NOT metabolized
same,Bacterial Biotransformation,[6],Compound NOT metabolized
same,Bacterial Biotransformation,[7],Compound NOT metabolized
same,Bacterial Biotransformation,[8],Compound NOT metabolized
same,Bacterial Biotransformation,[9],Compound NOT metabolized
CC(C)(C#N)c1cc(Cn2cncn2)cc(C(C)(C)C#N)c1 [ANASTROZOLE],Bacterial Biotransformation,[1],Compound metabolized
same,Bacterial Biotransformation,[2],Compound NOT metabolized
same,Bacterial Biotransformation,[3],Compound NOT metabolized
same,Bacterial Biotransformation,[4],Compound NOT metabolized
same,Bacterial Biotransformation,[5],Compound NOT metabolized
same,Bacterial Biotransformation,[6],Compound NOT metabolized
same,Bacterial Biotransformation,[7],Compound metabolized
same,Bacterial Biotransformation,[8],Compound NOT metabolized
same,Bacterial Biotransformation,[9],Compound NOT metabolized
O=P(O)(O)O.c1ccc(CN(CC2=NCCN2)c2ccccc2)cc1 [ANTAZOLINE PHOSPHATE],Bacterial Biotransformation,[1],Compound metabolized
same,Bacterial Biotransformation,[2],Compound metabolized
same,Bacterial Biotransformation,[3],Compound NOT metabolized
same,Bacterial Biotransformation,[4],Compound NOT metabolized
same,Bacterial Biotransformation,[5],Compound NOT metabolized
same,Bacterial Biotransformation,[6],Compound NOT metabolized
same,Bacterial Biotransformation,[7],Compound metabolized
same,Bacterial Biotransformation,[8],Compound NOT metabolized
same,Bacterial Biotransformation,[9],Compound NOT metabolized
CN1CCC(=C2c3ccccc3CCc3cccnc32)CC1.O=C(O)/C=C\C(=O)O.O=C(O)/C=C\C(=O)O [AZATADINE MALEATE],Bacterial Biotransformation,[1],Compound NOT metabolized
same,Bacterial Biotransformation,[2],Compound NOT metabolized
same,Bacterial Biotransformation,[3],Compound NOT metabolized
same,Bacterial Biotransformation,[4],Compound NOT metabolized
same,Bacterial Biotransformation,[5],Compound metabolized
same,Bacterial Biotransformation,[6],Compound NOT metabolized
same,Bacterial Biotransformation,[7],Compound NOT metabolized
same,Bacterial Biotransformation,[8],Compound NOT metabolized
same,Bacterial Biotransformation,[9],Compound NOT metabolized
CC(=O)OCC(=O)[C@@]1(O)[C@@H](C)C[C@H]2[C@@H]3CCC4=CC(=O)C=C[C@]4(C)[C@@]3(F)[C@@H](O)C[C@@]21C [BETAMETHASONE ACETATE],Bacterial Biotransformation,[1],Compound metabolized
same,Bacterial Biotransformation,[2],Compound metabolized
same,Bacterial Biotransformation,[3],Compound NOT metabolized
same,Bacterial Biotransformation,[4],Compound metabolized
same,Bacterial Biotransformation,[5],Compound metabolized
same,Bacterial Biotransformation,[6],Compound metabolized
same,Bacterial Biotransformation,[7],Compound metabolized
same,Bacterial Biotransformation,[8],Compound metabolized
same,Bacterial Biotransformation,[9],Compound metabolized
C[C@@H]1C[C@H]2[C@@H]3CCC4=CC(=O)C=C[C@]4(C)[C@@]3(F)[C@@H](O)C[C@]2(C)[C@@]1(O)C(=O)CO [DEXAMETHASONE],Bacterial Biotransformation,[2],Compound metabolized
same,Bacterial Biotransformation,[3],Compound NOT metabolized
same,Bacterial Biotransformation,[4],Compound NOT metabolized
same,Bacterial Biotransformation,[5],Compound NOT metabolized
same,Bacterial Biotransformation,[6],Compound NOT metabolized
same,Bacterial Biotransformation,[7],Compound NOT metabolized
same,Bacterial Biotransformation,[8],Compound NOT metabolized
same,Bacterial Biotransformation,[9],Compound NOT metabolized
O=c1[nH]c2ccccc2n1CCCN1CCC(n2c(=O)[nH]c3cc(Cl)ccc32)CC1 [DOMPERIDONE],Bacterial Biotransformation,[1],Compound NOT metabolized
same,Bacterial Biotransformation,[2],Compound metabolized
same,Bacterial Biotransformation,[3],Compound NOT metabolized
same,Bacterial Biotransformation,[4],Compound NOT metabolized
same,Bacterial Biotransformation,[5],Compound NOT metabolized
same,Bacterial Biotransformation,[6],Compound NOT metabolized
OCCN1CCN(CCCN2c3ccccc3Sc3ccc(C(F)(F)F)cc32)CC1 [FLUPHENAZINE],Bacterial Biotransformation,[1],Compound metabolized
same,Bacterial Biotransformation,[2],Compound metabolized
same,Bacterial Biotransformation,[4],Compound metabolized
same,Bacterial Biotransformation,[5],Compound metabolized
same,Bacterial Biotransformation,[6],Compound NOT metabolized
same,Bacterial Biotransformation,[7],Compound metabolized
same,Bacterial Biotransformation,[8],Compound metabolized
same,Bacterial Biotransformation,[9],Compound metabolized
c1ccc([C@H]2CN3CCSC3=N2)cc1 [LEVAMISOLE],Bacterial Biotransformation,[4],Compound metabolized
same,Bacterial Biotransformation,[5],Compound metabolized
same,Bacterial Biotransformation,[6],Compound metabolized
same,Bacterial Biotransformation,[7],Compound metabolized
same,Bacterial Biotransformation,[8],Compound metabolized
same,Bacterial Biotransformation,[9],Compound metabolized
C#C[C@]1(O)CC[C@H]2[C@@H]3CCC4=CC(=O)CC[C@@H]4[C@H]3CC[C@@]21CC [LEVONORGESTREL],Bacterial Biotransformation,[1],Compound metabolized
same,Bacterial Biotransformation,[2],Compound metabolized
same,Bacterial Biotransformation,[3],Compound metabolized
same,Bacterial Biotransformation,[5],Compound metabolized
same,Bacterial Biotransformation,[6],Compound metabolized
same,Bacterial Biotransformation,[7],Compound metabolized
same,Bacterial Biotransformation,[8],Compound NOT metabolized
same,Bacterial Biotransformation,[9],Compound metabolized
CO[C@]12C[C@@H](COC(=O)c3cncc(Br)c3)CN(C)[C@@H]1Cc1cn(C)c3cccc2c13 [NICERGOLINE],Bacterial Biotransformation,[1],Compound metabolized
same,Bacterial Biotransformation,[2],Compound metabolized
same,Bacterial Biotransformation,[4],Compound NOT metabolized
same,Bacterial Biotransformation,[5],Compound NOT metabolized
same,Bacterial Biotransformation,[6],Compound NOT metabolized
same,Bacterial Biotransformation,[7],Compound NOT metabolized
same,Bacterial Biotransformation,[8],Compound NOT metabolized
same,Bacterial Biotransformation,[9],Compound NOT metabolized
O=C1CC[C@@H](C(=O)N2CSC[C@H]2C(=O)O)N1 [PIDOTIMOD] ([pGlu]-[Thz]-OH),Bacterial Biotransformation,[1],Compound NOT metabolized
same,Bacterial Biotransformation,[2],Compound NOT metabolized
same,Bacterial Biotransformation,[3],Compound NOT metabolized
same,Bacterial Biotransformation,[4],Compound metabolized
same,Bacterial Biotransformation,[6],Compound NOT metabolized
same,Bacterial Biotransformation,[8],Compound NOT metabolized
same,Bacterial Biotransformation,[9],Compound NOT metabolized
